{"source": "patent US20170055529A1", "about": "“BROAD SPECTRUM WEED CONTROL IN FLOODED RICE BY IN-WATER APPLICATION OF AUXIN HERBICIDES” (priority 2015, published 2017)", "assay_type_in_all_cases": "in vivo", "key": {"[1]": {"tested_on": "ORYSP = Oryza sativa (transplanted paddy rice)", "experiment": "Greenhouse in-water application (large pots), crop injury", "procedure": "(§1) Weed seeds or nutlets of the desired test plant species were planted in puddled soil (mud) prepared by mixing shredded topsoil and deionized (DI) water in a 1:1 ratio in a standard cement mixer. […] Osmocote® (17:6:10 N:P:K; 0.5 teaspoon) was added to the bottom of a container. The container is a high-density polyethylene (HDPE) round container (4.163 L (1.1 gallon), 15 cm high×20.55 cm diameter; for treatment purposes, the surface area is calculated as 331 cm^2 with 1 hectare equivalent to 10^8 cm^2). The mud mixture (2,750 mL) was added to the container filling it half full. Stakes were placed horizontally in each container to create separate areas for which to plant each different plant species. Water was added on a regular basis to maintain the paddy flood, and supplemental lighting was provided with overhead metal halide 1000-Watt lamps as necessary.\n(§2) Once the plants had reached the proper size (the growth stage of the various species ranged from 2 to 4 leaves), the containers were flooded with city water to a depth of 3 cm submerging the plants 80-100%. The outside of each container was measured and marked at a 3-cm line with a black permanent marker to eliminate water level variability during the trial period. Water was added daily to maintain this water depth. Triclopyr triethylammonium (as Garlon® 3 A, 360 g ae/L); triclopyr butoxyethyl ester (as Garlon® 4, 480 g ae/L); fluroxypyr methylheptyl ester (meptyl or MHE, as Starane® Ultra, 333 g ae/L); fluroxypyr acid (850 grams acid equivalent per kilogram (g ae/kg)); 2,4-dichlorophenoxyacetic acid dimethylammonium (2,4-D DMA, as Weedar® 64 EC, 456 g ae/L); 2,4-dichlorophenoxyacetic acid 2-ethylhexyl ester (2,4-D 2-EHE, as Agri Star®, 456 g ae/L); clopyralid olamine (as Stinger®, 360 g ae/L); and penoxsulam (as Grasp® SC, 240 g ai/L) were used. Each herbicide treatment for each pot was mixed in water (80 mL) and applied directly into the paddy water at rates adjusted to the surface area. The dry formulations were pre-weighed based on the rate of the active ingredient to be applied on a per unit area basis, placed in 30 mL vials, and capped. Granules were spread onto the top of the water in each pot and dispersed throughout the water. Treatments were replicated 3 times.\n(§3) The treated plants and control plants were placed in a greenhouse as described above and water was added as needed to maintain a flood depth of 3 cm. […]"}, "[2]": {"tested_on": "SCPJU = Schoenoplectus juncoides (Japanese bulrush)", "experiment": "Greenhouse in-water herbicidal activity (small pots)", "text": "(§4) Weed seeds of the desired test plant species were planted in puddled soil (mud) prepared by mixing a non-sterilized mineral soil (approximately 50 percent silt, 26 percent clay, and 24 percent sand, with a pH of about 7.6 and an organic matter content of about 2.9 percent) and water at a 1:1 volumetric ratio. The prepared mud was dispensed in 365 milliliter (mL) aliquots into 16-ounce (oz.) non-perforated plastic pots with a surface area of 86.59 square centimeters (cm^2) leaving a headspace of 3 centimeters (cm) in each pot. Mud was allowed to dry overnight prior to planting or transplanting. Rice seeds were planted in Sun Gro® MetroMix® 360 planting mixture, which typically has a pH of 6.0 to 6.8 and an organic matter content of about 30 percent, in plastic plug trays. Seedlings at the second or third leaf stage of growth were transplanted into 840 mL of mud contained in 32-oz. non-perforated plastic pots with a surface area of 86.59 cm^2 four days prior to herbicide application. The paddy was created by filling the headspace of the pots with 2.5 to 3 cm of water. When required to ensure good germination and healthy plants, a fungicide treatment and/or other chemical or physical treatment was applied. The plants were grown for 4-22 days (d) in a greenhouse with an approximate 14-hour (h) photoperiod which was maintained at about 29° C. during the day and 26° C. during the night. Nutrients were added as Osmocote® (19:6:12, Nitrogen:Phosphorus:Potassium (N:P:K)+minor nutrients) at 2 g per 16 oz. pot and 4 g per 32 oz. pot. Water was added on a regular basis to maintain the paddy flood, and supplemental lighting was provided with overhead metal halide 1000-Watt lamps as necessary. The plants were used for testing when they reached the second or third true leaf stage.\n(§5) Triclopyr triethylammonium (as Grandstand® R, 359.5 grams acid equivalent per liter (g ae/L)); fluroxypyr methylheptyl ester (meptyl or MHE, as Starane™, 179.8 g ae/L); 2,4-dichlorophenoxyacetic acid dimethylammonium (2,4-D DMA, as Weedar® 64, 455.4 g ae/L); and penoxsulam (as Grasp® SC, 239.7 grams active ingredient per liter (g ai/L) were used. Measured amounts of formulated compounds were placed in individual 120 mL glass vials and were dissolved in 40 mL of an aqueous mixture containing 1.25% volume per volume (v/v) Agri-Dex® crop oil concentrate. Generally, multiple concentrations were tested utilizing the same stock solution. Applications were made by injecting an appropriate amount of the application solution into the aqueous layer of the paddy. Control plants were treated in the same manner with the solvent blank.\n(§6) The treated plants and control plants were placed in a greenhouse as described above and water was added as needed to maintain a paddy flood. After approximately 3 weeks the condition of the test plants, compared with that of the untreated plants, was determined visually and scored on a scale of 0 to 100 percent where 0 corresponds to no injury or growth reduction and 100 corresponds to complete kill."}, "[3]": {"tested_on": "MOOVA = Monochoria vaginalis (monochoria)", "experiment": "Greenhouse in-water herbicidal activity (small pots)", "text": "as §4, §5, §6"}, "[4]": {"tested_on": "ECHCG = Echinochloa crus-galli (barnyardgrass)", "experiment": "Greenhouse in-water herbicidal activity (small pots)", "text": "as §4, §5, §6"}, "[5]": {"tested_on": "CYDPI = Cyperus difformis (small-flower flatsedge)", "experiment": "Greenhouse in-water herbicidal activity (small pots)", "text": "as §4, §5, §6"}, "[6]": {"tested_on": "MOOVA = Monochoria vaginalis (monochoria)", "experiment": "Greenhouse in-water herbicidal activity (large pots)", "details": "for Percent (%) Visual Injury Ratings - 16 DAA, MOOVA / Percent (%) Visual Injury Ratings - 22 DAA, MOOVA: greenhouse large pots", "procedure": "as §1, §2, §3"}, "[7]": {"details": "Pontederia vaginalis, 744 h, read-out: Percent (%) Visual Injury Ratings - 31 DAA, MOOVA"}}, "data": [{"smiles": "CCCCCCC(C)OC(=O)COc1nc(F)c(Cl)c(N)c1Cl", "note": "(centres unmarked) [Fluroxypyr-meptyl (Starane ® Ultra), 1-methylheptyl 2-[(4-amino-3,5-dichloro-6-fluoro-2-pyridinyl)oxy]acetate]", "values": [{"measurement": "Percent (%) Visual Injury Ratings - 31 DAA, ORYSP", "setting": "[1]; 280 g ae/ha in-water", "result": 5, "unit": "%"}, {"measurement": "Percent (%) Visual Injury Ratings - 31 DAA, ORYSP", "setting": "[1]; 560 g ae/ha in-water", "result": 28, "unit": "%"}, {"measurement": "Percent (%) Visual Injury Ratings - 31 DAA, ORYSP", "setting": "[1]; 1120 g ae/ha in-water", "result": 73, "unit": "%"}, {"measurement": "Percent (%) Visual Injury Ratings - 20 DAA, SCPJU", "setting": "[2]; 280 g ae/ha in-water", "result": 60, "unit": "%"}, {"measurement": "Percent (%) Visual Injury Ratings - 20 DAA, SCPJU", "setting": "[2]; 560 g ae/ha in-water", "result": 90, "unit": "%"}, {"measurement": "Percent (%) Visual Injury Ratings - 20 DAA, SCPJU", "setting": "[2]; 1120 g ae/ha in-water", "result": 100, "unit": "%"}, {"measurement": "Percent (%) Visual Injury Ratings - 20 DAA, MOOVA", "setting": "[3]; 280 g ae/ha in-water", "result": 85, "unit": "%"}, {"measurement": "Percent (%) Visual Injury Ratings - 20 DAA, MOOVA", "setting": "[3]; 560 g ae/ha in-water", "result": 100, "unit": "%"}, {"measurement": "Percent (%) Visual Injury Ratings - 20 DAA, MOOVA", "setting": "[3]; 1120 g ae/ha in-water", "result": 100, "unit": "%"}, {"measurement": "Percent (%) Visual Injury Ratings - 20 DAA, ECHCG", "setting": "[4]; 280 g ae/ha in-water", "result": 0, "unit": "%"}, {"measurement": "Percent (%) Visual Injury Ratings - 20 DAA, ECHCG", "setting": "[4]; 560 g ae/ha in-water", "result": 25, "unit": "%"}, {"measurement": "Percent (%) Visual Injury Ratings - 20 DAA, ECHCG", "setting": "[4]; 1120 g ae/ha in-water", "result": 99, "unit": "%"}, {"measurement": "Percent (%) Visual Injury Ratings - 20 DAA, CYDPI", "setting": "[5]; 280 g ae/ha in-water", "result": 100, "unit": "%"}, {"measurement": "Percent (%) Visual Injury Ratings - 20 DAA, CYDPI", "setting": "[5]; 560 g ae/ha in-water", "result": 100, "unit": "%"}, {"measurement": "Percent (%) Visual Injury Ratings - 20 DAA, CYDPI", "setting": "[5]; 1120 g ae/ha in-water", "result": 100, "unit": "%"}, {"measurement": "Percent (%) Visual Injury Ratings - 16 DAA, MOOVA", "setting": "[6]; 35 g ae/ha", "result": 27, "unit": "%"}, {"measurement": "Percent (%) Visual Injury Ratings - 22 DAA, MOOVA", "setting": "[6]; 35 g ae/ha", "result": 0, "unit": "%"}, {"measurement": "Percent (%) Visual Injury Ratings - 16 DAA, MOOVA", "setting": "[6]; 70 g ae/ha", "result": 27, "unit": "%"}, {"measurement": "Percent (%) Visual Injury Ratings - 22 DAA, MOOVA", "setting": "[6]; 70 g ae/ha", "result": 3, "unit": "%"}, {"measurement": "Percent (%) Visual Injury Ratings - 16 DAA, MOOVA", "setting": "[6]; 140 g ae/ha", "result": 13, "unit": "%"}, {"measurement": "Percent (%) Visual Injury Ratings - 22 DAA, MOOVA", "setting": "[6]; 140 g ae/ha", "result": 0, "unit": "%"}, {"measurement": "Percent (%) Visual Injury Ratings - 16 DAA, MOOVA", "setting": "[6]; 280 g ae/ha", "result": 5, "unit": "%"}, {"measurement": "Percent (%) Visual Injury Ratings - 22 DAA, MOOVA", "setting": "[6]; 280 g ae/ha", "result": 15, "unit": "%"}, {"measurement": "pest or weed control at 280 g/ha", "setting": "[6]; [7]", "result": 100, "unit": "%"}, {"measurement": "pest or weed control at 560 g/ha", "setting": "[6]; [7]", "result": 100, "unit": "%"}, {"measurement": "pest or weed control at 1120 g/ha", "setting": "[6]; [7]", "result": 100, "unit": "%"}]}]}
